Laboratory results: US6706737B2, “Alkoxy substituted benzimidazole compounds, pharmaceutical preparations containing the same, and methods of using the same” (priority 1999, dated 2004)
“And” between values parts separate entries of the source, which are not always exact repeats. Identical values can stand only once.

Assay: Solubility assessment as a function of HPβCD concentration
Type: physicochemical
Experimental: Solubility studies were performed by the addition of a known mass of 5(6)-methoxy-2[[(methoxy-3,5-dimethyl-2-pyridinyl)-methyl]sulfinyl]-1H-benzimidazole and/or HP CD to a given volume of solvent system. Solubilities were determined by observation, as the maximum concentration at which 5(6)-methoxy-2-[[(4-methoxy-3,5-dimethyl-2-pyridinyl)-methyl]sulfinyl]-1H-benzimidazole completely dissolved. Additionally, concentrations of 5(6)-methoxy-2-[[(4-methoxy-3,5-dimethyl-2-pyridinyl)methyl]sulfinyl]-1H-benzimidazole and HP CD at set molar ratios were solubilized in systems of high pH (adjusted as high as 12.2, with 1N NaOH), the pH was adjusted (using 2N HCl) in a stepwise downward manner until precipitation occurred.
The solubility of 5(6)-methoxy-2-[[(4-methoxy-3,5-dimethyl-2-pyridinyl)-methyl]sulfinyl]-1H-benzimidazole was assessed as a function of HPβCD concentration in water. […] In general, the solubility of the active ingredient is influenced by solution pH.
The procedure according to Example 86 was repeated except that water with a borate buffer (pH of 8) was employed.
The procedure according to Example 86 was repeated except that water with a phosphate buffer (pH of 11) was employed.

COc1ccc2[nH]c([S+]([O-])Cc3ncc(C)c(OC)c3C)nc2c1 (stereo not shown) [5(6)-methoxy-2-[[(4-methoxy-3,5-dimethyl-2-pyridinyl)-methyl]sulfinyl]-1H-benzimidazole]
aqueous solubility (water): approximately 0.3 mg/mL and ~0.9 mM
solubility as a function of HPβCD concentration (water): increase linearly
solubility as a function of HPβCD concentration (water with a borate buffer (pH of 8)): increase linearly
solubility as a function of HPβCD concentration (water with a phosphate buffer (pH of 11)): increase linearly
